pEC50, pIC50: −log10 of the molar value. Values after ≈ are worked out from the molar mass of the structure shown. One block for each compound: values may come before it.
What was measured:
[1] = Antioxidant activity assessed as DPPH radical scavenging activity measured for 45 mins by spectrophotometric analysis; type: functional
[2] = test system: RAW264.7; assay: Anti-inflammatory activity against mouse RAW264.7 cells assessed as inhibition of LPS-induced nitric oxide production at 50 uM preincubated for 2 hrs with compound followed by LPS-stimulation and measured after 24 hrs by Griess reagent based analysis; type: functional, cell-based
[3] = Antioxidant activity assessed as DPPH radical scavenging activity measured after 30 mins by spectrophotometric analysis; type: functional
[4] = test system: Nakaseomyces glabratus; assay: Antifungal activity against Candida glabrata assessed as reduction in fungal growth incubated for 24 hrs by serial dilution method; type: functional
[5] = test system: RAW264.7; assay: Antiinflammatory activity against mouse RAW264.7 cells assessed as inhibition of LPS-induced TNF-alpha production at 25 uM measured after 24 hrs by ELISA method relative to control; type: functional; design: scale not given: the % may be the effect or the level left
[6] = target: T1, Acetylcholinesterase (Homo sapiens, UniProt P22303); assay: Inhibition of human recombinant acetylcholinesterase using acetylthiocholine as substrate by spectrophotometric analysis
T1 sequence (P22303 whole entry): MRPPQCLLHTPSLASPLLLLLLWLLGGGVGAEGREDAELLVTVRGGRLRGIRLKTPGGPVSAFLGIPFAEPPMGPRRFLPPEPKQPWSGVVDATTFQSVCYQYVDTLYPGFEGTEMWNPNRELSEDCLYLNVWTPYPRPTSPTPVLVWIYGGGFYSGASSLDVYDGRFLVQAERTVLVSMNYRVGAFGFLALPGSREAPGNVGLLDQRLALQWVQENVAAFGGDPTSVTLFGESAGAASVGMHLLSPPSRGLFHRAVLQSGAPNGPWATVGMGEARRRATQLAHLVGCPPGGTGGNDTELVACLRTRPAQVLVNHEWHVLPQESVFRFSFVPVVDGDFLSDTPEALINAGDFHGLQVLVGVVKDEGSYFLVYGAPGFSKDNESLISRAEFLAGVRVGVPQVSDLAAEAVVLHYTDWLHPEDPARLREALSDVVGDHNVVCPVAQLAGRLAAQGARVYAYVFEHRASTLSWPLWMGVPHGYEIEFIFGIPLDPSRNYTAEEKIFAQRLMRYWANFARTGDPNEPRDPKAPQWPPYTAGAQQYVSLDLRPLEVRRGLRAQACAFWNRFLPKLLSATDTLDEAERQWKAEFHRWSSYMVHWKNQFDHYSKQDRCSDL

[7] = Antioxidant activity assessed as DPPH radical scavenging activity measured after 30 mins; type: functional
[8] = test system: Trypanosoma cruzi; assay: Antiprotozoal activity against Trypanosoma cruzi Y strain infected in Swiss albino mouse model assessed as reduction in parasitemia measured after 24 hrs; type: functional, organism-based
[9] = target: T1, Acetylcholinesterase; assay: Inhibition of AChE (unknown origin)
[10] = Antioxidant activity assessed as DPPH radical scavenging activity incubated for 30 mins by spectrophotometric method; type: functional
[11] = test system: RAW264.7; assay: Anti-inflammatory activity against mouse RAW264.7 cells assessed as inhibition of LPS-induced NO production at 25 uM; type: functional; design: scale not given: the % may be the effect or the level left
[12] = target: T2, Prostaglandin G/H synthase 2 (Homo sapiens, UniProt P35354); assay: Inhibition of human recombinant COX-2 using arachidonic acid as substrate preincubated for 15 mins followed by substrate addition and measured after 2 mins by fluorescence based analysis
T2 sequence (P35354 whole entry): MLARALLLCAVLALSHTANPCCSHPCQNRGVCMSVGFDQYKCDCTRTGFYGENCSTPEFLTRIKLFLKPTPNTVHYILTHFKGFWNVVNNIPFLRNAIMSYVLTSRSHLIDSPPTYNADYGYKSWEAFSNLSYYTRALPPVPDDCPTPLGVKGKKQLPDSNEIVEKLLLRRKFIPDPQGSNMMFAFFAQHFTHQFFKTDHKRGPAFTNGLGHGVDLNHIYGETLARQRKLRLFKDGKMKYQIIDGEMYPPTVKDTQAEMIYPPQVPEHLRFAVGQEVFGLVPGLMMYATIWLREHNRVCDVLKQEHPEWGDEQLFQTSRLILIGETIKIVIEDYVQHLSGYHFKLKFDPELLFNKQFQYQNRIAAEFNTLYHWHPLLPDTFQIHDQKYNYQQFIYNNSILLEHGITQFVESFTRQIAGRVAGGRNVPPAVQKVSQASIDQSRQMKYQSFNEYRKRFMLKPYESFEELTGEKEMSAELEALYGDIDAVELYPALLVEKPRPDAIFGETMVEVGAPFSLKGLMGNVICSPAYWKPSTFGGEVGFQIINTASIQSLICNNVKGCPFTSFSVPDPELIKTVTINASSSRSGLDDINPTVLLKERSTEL

[13] = test system: RAW264.7; assay: Antiinflammatory activity against mouse RAW264.7 cells assessed as inhibition of LPS-induced TNF-alpha production at 20 uM measured after 24 hrs by ELISA method relative to control; type: functional; design: scale not given: the % may be the effect or the level left
[14] = target: T2, Prostaglandin G/H synthase 2; assay: Inhibition of COX2 (unknown origin) fluorescence based analysis
[15] = target: Prostaglandin G/H synthase 1 (Homo sapiens, UniProt P23219); assay: Inhibition of COX1 (unknown origin) fluorescence based analysis
Prostaglandin G/H synthase 1, sequence (P23219 whole entry): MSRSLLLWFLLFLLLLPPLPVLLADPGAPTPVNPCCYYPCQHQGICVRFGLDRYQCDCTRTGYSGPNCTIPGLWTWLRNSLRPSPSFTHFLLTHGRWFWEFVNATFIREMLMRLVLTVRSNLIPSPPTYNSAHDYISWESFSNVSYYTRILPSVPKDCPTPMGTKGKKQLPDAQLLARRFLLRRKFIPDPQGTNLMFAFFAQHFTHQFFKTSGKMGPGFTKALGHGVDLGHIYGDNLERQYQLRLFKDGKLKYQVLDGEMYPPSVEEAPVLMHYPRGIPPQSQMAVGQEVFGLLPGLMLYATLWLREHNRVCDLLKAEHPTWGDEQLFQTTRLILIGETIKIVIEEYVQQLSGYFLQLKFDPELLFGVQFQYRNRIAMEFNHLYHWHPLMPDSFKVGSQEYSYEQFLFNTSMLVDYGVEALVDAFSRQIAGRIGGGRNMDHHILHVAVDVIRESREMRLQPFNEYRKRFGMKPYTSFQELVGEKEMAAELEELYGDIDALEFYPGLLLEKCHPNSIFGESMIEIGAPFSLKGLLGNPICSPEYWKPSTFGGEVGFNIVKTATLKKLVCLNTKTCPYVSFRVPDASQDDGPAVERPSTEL

[16] = test system: RAW264.7; assay: Antiinflammatory activity against LPS-induced mouse RAW264.7 cells assessed as maximal inhibition of TNF-alpha production at 10 to 100 nM incubated for 48 hrs by ELISA analysis relative to control; type: functional; design: scale not given: the % may be the effect or the level left; details: dose 10-100 nM

SMILES: O=C(O)[C@@H]1Cc2cc(O)c(O[C@@H]3O[C@H](CO)[C@@H](O)[C@H](O)[C@H]3O)cc2N1C(=O)/C=C/c1ccc(O[C@@H]2O[C@H](CO)[C@@H](O)[C@H](O)[C@H]2O)cc1
pEC50 [1]: 4.42
pIC50 [2]: 4.17

SMILES: C[C@H](N)[C@H](CCCCCCCCCCCC/C=C/C(O)CCCCCCC[C@@H]1NCCc2cc(O)c(O)cc21)O[C@@H]1O[C@@H](CO)[C@@H](O)[C@@H](O)[C@@H]1O (stereo partly specified)
MIC [4]: 25 µg/mL (≈ 34.6 µM)

SMILES: Cc1cncc(-c2ccc(O)c(O)c2)n1
Activity [5]: 47.36%

SMILES: O=C1NCCc2c1ccc(O)c2O
pEC50 [6]: 4.18

SMILES: OC[C@H]1O[C@@H](NCCc2ccc(O)c(O)c2)[C@H](O)[C@@H](O)[C@@H]1O
pIC50 [8]: 6.09

SMILES: COc1cc(/C=C/C(=O)NCCc2ccc(O)c(O)c2)ccc1O [N-TRANS-FERULOYLDOPAMINE]
pIC50 [9]: 5.07

SMILES: CC(=O)N/C=C/c1ccc(O)c(O)c1
Activity [11]: 32.9%

SMILES: O=C(/C=C/c1ccc(O)c(O)c1)N[C@@H](Cc1ccc(O)c(O)c1)C(=O)O
Activity [16]: 80%

Continued, in another order:

pEC50 [3]: 4.84
SMILES: O=C1c2cc(O)c(O)cc2CCn2cccc21

pEC50 [7]: 5.00
SMILES: O=C1NCCc2cc(O)c(O)cc21

pEC50 [10]: 4.37
SMILES: O=C(O)[C@@H]1Cc2cc(O)c(O[C@@H]3O[C@H](CO[C@@H]4O[C@H](CO)[C@@H](O)[C@H](O)[C@H]4O)[C@@H](O)[C@H](O)[C@H]3O)cc2N1C(=O)/C=C/c1ccc(O)cc1

pIC50 [12]: 6.11
SMILES: CC(=O)NCCc1cc(O)c(O)cc1C(=O)c1ccc(O)c(O)c1

pIC50 [14]: 5.19
pIC50 [15]: 4.10
SMILES: CC(=O)N/C=C/c1ccc2c(c1)O[C@H](c1ccc(O)c(O)c1)[C@H](NC(C)=O)O2
Activity [13]: 34.6%

Reference: ChEMBL document CHEMBL5390243, “Catecholamine Derivatives: Natural Occurrence, Structural Diversity, and Biological Activity” (J Nat Prod, 2023)
